Where two headings read alike, the source gives them in different places.
Tests used:
[1] = tested on: HIV-1 clinical isolate 4246; test: Antiviral assay, HIV-1 clinical isolate 4246, CBMCs; assay type: cell-based; conditions: Human immunodeficiency virus 1, read-out: EC50 in CBMCs
Protocol: (§1) HIV-1IIIB laboratory strain and HXB2-D recombinant of HIV-1 were kindly supplied by R. C. Gallo (Institute of Human Virology, Baltimore, Md.). […] The recombinant viruses were generated by transfection of proviral DNA into MT-4 cells with Lipofectamine using the protocol recommended by the manufacturer .(Gibco BRL, Montreal, Canada). […] Stock viruses were prepared from clarified culture supernatants by centrifugation and stored at −70° C. The viruses were titrated by limited dilution with a 4-fold serial dilution.
(§2) The population of HIV-1 in infected individual is quasispecies and the sensitivity of these different viruses found in clinical isolates to antiviral chemotherapy might be quite variable. In addition, HIV-1 isolates obtained from patients receiving long-term antiretroviral therapy might behave differently from cloned virus containing genetically engineered mutations in the RT gene. For these reasons, clinical isolates of HIV-1 from antiviral naive and drug-treated patients were assayed in PHA-stimulated CBMCs for their sensitivity to DXG and DAPD accompanied with approved antiretroviral agents. The genotype of the HIV-1 clinical isolates were determined as described above.

recombinant HXB2-D 65R = test: microbe, parasite or virus in culture; assay type: cell-based, HIV-1; conditions: Human immunodeficiency virus 1, HXB2, read-out: EC50 in CBMCs
Protocol: as §1

recombinant HXB2-D WT = test: microbe, parasite or virus in culture; assay type: cell-based, HIV-1; conditions: Human immunodeficiency virus 1, HXB2, read-out: EC50 in CBMCs
Protocol: as §1

recombinant HXB2-D 74V = test: microbe, parasite or virus in culture; assay type: cell-based, HIV-1; conditions: Human immunodeficiency virus 1, HXB2, read-out: EC50 in CBMCs
Protocol: as §1

[2] = tested on: recombinant HXB2-D 41L/70R/215Y/219Q; test: microbe, parasite or virus in culture; assay type: cell-based, HIV-1; conditions: for sensitivity of AZT resistant virus, in words: 41L, 70R, 215Y and 219Q, CBMCs, also observed in MT-2 cells; for EC50: Human immunodeficiency virus 1, HXB2, read-out: EC50 in CBMCs
Protocol: as §1

[3] = tested on: recombinant HXB2-D 10R/46I/63P/82T/84V; test: microbe, parasite or virus in culture; assay type: cell-based, HIV-1; conditions: Human immunodeficiency virus 1, HXB2, read-out: EC50 in CBMCs
Protocol: as §1

[4] = tested on: recombinant HXB2-D 41L/215Y/184V; test: microbe, parasite or virus in culture; assay type: cell-based, HIV-1; conditions: for EC50: Human immunodeficiency virus 1, HXB2, read-out: EC50 in CBMCs
Protocol: as §1

recombinant HXB2-D 184V = test: microbe, parasite or virus in culture; assay type: cell-based, HIV-1; conditions: Human immunodeficiency virus 1, HXB2, read-out: EC50 in CBMCs
Protocol: as §1

[5] = Cytotoxicity, [3H]-thymidine uptake, Molt-4; assay type: cell-based; conditions: human, Molt-4 cells
Protocol: (§3) The cellular toxicity of the BCH compounds were assessed on various cells using [^3H]-thymidine uptake. The various cells, including Molt-4, HT1080, DU-145, HepG 2 and HSF, were plated at a concentration of 1-2×10^3 cells per well (96 well plates). However, PHA-stimulated PBMCs were cultured at a concentration of 4×10^4. After a 24 hr incubation period, 10-fold serial diluted compounds (10^−4 M to 10^−10 M) were added to the culture medium and the cells were further incubated for 72 hrs. [^3H]-thymidine was added during the final 18 hr incubation period. After incubation with the [^3H]-thymidine, the cells were washed once with PBS, treated with trypsin it the cells were adherent, and then resuspended in water (hypotonic lysing of cells) The cellular extract was applied directly to a Tomtec Harvester 96. Using this instrument the extracted DNA is adsorbed onto filters, washed and the incorporated [^3H]-thymidine is then counted.

[6] = Cytotoxicity, [3H]-thymidine uptake, HSF; assay type: cell-based; conditions: human, human skin fibroblasts (HSF)
Protocol: as §3

[7] = Cytotoxicity, [3H]-thymidine uptake, HepG2; assay type: cell-based; conditions: human, HepG2 cells
Protocol: as §3

[8] = tested on: HIV-1 clinical isolate 3350; test: microbe, parasite or virus in culture; assay type: cell-based; conditions: for EC50: Human immunodeficiency virus 1, read-out: EC50 in CBMCs; for decreased susceptibility compared to the lamivudine and AZT sensitive isolates: isolate 3350, 184V
Protocol: as §1, §2

[9] = tested on: HIV-1 clinical isolate 4924; test: microbe, parasite or virus in culture; assay type: cell-based; conditions: Human immunodeficiency virus 1, read-out: EC50 in CBMCs
Protocol: as §1, §2

[10] = tested on: HIV-1 clinical isolate 3887; test: microbe, parasite or virus in culture; assay type: cell-based; conditions: Human immunodeficiency virus 1, read-out: EC50 in CBMCs
Protocol: as §1, §2

[11] = tested on: HIV-1 clinical isolate 4833; test: microbe, parasite or virus in culture; assay type: cell-based; conditions: Human immunodeficiency virus 1, therapy Saquinavir (48 weeks), read-out: EC50 in CBMCs
Protocol: as §1, §2

[12] = tested on: HIV-1 clinical isolate 4242; test: microbe, parasite or virus in culture; assay type: cell-based; conditions: for sensitivity of isolate 4242, in words: 41L/70R/215Y in RT; for EC50: Human immunodeficiency virus 1, read-out: EC50 in CBMCs
Protocol: as §1, §2

[13] = tested on: HIV-1 clinical isolate 4877; test: microbe, parasite or virus in culture; assay type: cell-based; conditions: Human immunodeficiency virus 1, read-out: EC50 in CBMCs
Protocol: as §1, §2

[14] = tested on: HIV-1 clinical isolate 4205; test: microbe, parasite or virus in culture; assay type: cell-based; conditions: for EC50: Human immunodeficiency virus 1, read-out: EC50 in CBMCs; for decreased susceptibility compared to the lamivudine and AZT sensitive isolates: isolate 4205, 184V
Protocol: as §1, §2

[15] = Cytotoxicity, [3H]-thymidine uptake, HT-1080; assay type: cell-based; conditions: human, HT-1080 cells
Protocol: as §3

[16] = Cytotoxicity, [3H]-thymidine uptake, DU145; assay type: cell-based; conditions: human, DU145 cells
Protocol: as §3

HIV-1IIIB = test: Anti-HIV-1 antiviral assay, laboratory strain HIV-1IIIB, RT activity in culture supernatants
Protocol: Most experiments were performed with a laboratory strain HIV-1III. […] The cells were incubated with virus using the indicated multiplicity of infection (MOI) for 2-3 hrs. The MOI used for each experiment was dependent upon the cell line and virus strain used, and was generally in the range of 0.005 to 0.5. For example, in assays performed using the established cell line MT-2, HIV-1IIIB at an MOI of 0.005 was used to infect cells. The unbound virus was then removed by washing the cells, followed by plating the cells into a 96-well plate. The infected cells were cultured in the presence of a serial concentrations of the test compound for 5-7 days. The anti-HIV-1 efficacy was determined by testing for HIV-1 RT activity in the cell culture supernatants. All assays were performed in duplicate and at least two independent experiments were performed. […] The susceptibilities of the HIV-1 variants to antiretroviral agents are expressed as the mean of the EC50 determinations.

[17] = tested on: HIV-1 clinical isolate 4526; test: Antiviral assay, HIV-1 clinical isolate 4526, CBMCs; assay type: cell-based; conditions: Human immunodeficiency virus 1, naive
Protocol: as §1, §2

[18] = Cytotoxicity, [3H]-thymidine uptake, PBMC; assay type: cell-based; conditions: human, PHA-stimulated PBMCs
Protocol: as §3

[19] = tested on: recombinant HXB2-D 106A/181C; test: microbe, parasite or virus in culture; assay type: cell-based, HIV-1; conditions: Human immunodeficiency virus 1, HXB2, read-out: EC50 in CBMCs
Protocol: as §1

[20] = tested on: CBMCs, MT-2, H9, Jurkat and U937; test: Cytotoxicity, WST-1 cell viability assay; assay type: cell-based, human; conditions: WST-1, MT-2, H9, Jurkat and U937
Protocol: The cellular toxicity of the compounds was also tested by WST-1 staining through assessing proliferation of MT-2, H9, Jurkat, U937, and CBMCs. The established cell lines were cultured in RPMI medium in 96-well plates at a density of 5×10^4 cells/well while CBMCs were plated at a concentration of 0.5×10^6/well. A 10-fold serial diluted (10^−4−10^−7 M) compound was added at day zero. At day 4, the cells were passaged by changing half medium containing appropriately diluted compound. The cell activities were assessed at day 7 using the WST-1 reagent (Boehringer Mannheim) following the protocol provided by the supplier.

[21] = Human immunodeficiency virus 1, H9, read-out: EC50, mean values ± SD
[22] = Human immunodeficiency virus 1, Jurkat, read-out: EC50, mean values ± SD
[23] = Human immunodeficiency virus 1, MT2, read-out: EC50, mean values ± SD
[24] = Human immunodeficiency virus 1, MT4, read-out: EC50, mean values ± SD
[25] = Human immunodeficiency virus 1, U-937
[26] = Human immunodeficiency virus 1, read-out: EC50, mean values ± SD

With Nc1nc(N)c2ncn([C@H]3CO[C@@H](CO)O3)c2n1 [DAPD, (−)- -D-2,6-diaminopurine-1,3-dioxolane] the EC50 [1] was 410 ± 20 nM, the EC50 (recombinant HXB2-D 65R) was 6.5 ± 2.1 µM and the EC50 (recombinant HXB2-D WT) was 1100 ± 160 nM. For the same compound, the EC50 (recombinant HXB2-D 74V) was 6.6 ± 3.4 µM, the “sensitivity of AZT resistant virus, in words” value [2] was “remained completely sensitive” and the EC50 [2] was 1250 ± 590 nM. It also gave an EC50 [3] of 1370 ± 60 nM, an EC50 [4] of 2300 ± 50 nM and an EC50 (recombinant HXB2-D 184V) of 2100 ± 200 nM. The CC50 at 72 h [5] was > 500 µM, the CC50 at 72 h [6] was > 500 µM and the CC50 at 72 h [7] was > 500 µM. For the same compound, the EC50 [8] was 3300 ± 1200 nM, the “decreased susceptibility compared to the lamivudine and AZT sensitive isolates” value (shortened to “decreased susceptibility”) [8] was ~5 fold and the EC50 [9] was 170 nM. For the same compound, the EC50 [10] was 190 ± 120 nM, the EC50 [11] was 630 ± 380 nM and the “sensitivity of isolate 4242, in words” value [12] was “remained sensitive”. The EC50 [12] was 880 ± 300 nM, the EC50 [13] was 260 nM and the EC50 [14] was 4100 ± 350 nM. For the same compound, the “decreased susceptibility” value [14] was ~5 fold, the CC50 at 72 h [15] was > 500 µM and the CC50 at 72 h [16] was > 500 µM. It also gave an EC50 (HIV-1IIIB; [21]) of 75 ± 40 nM, an EC50 (HIV-1IIIB; [22]) of 1370 ± 720 nM and an EC50 (HIV-1IIIB; [23]) of 540 nM. The EC50 (HIV-1IIIB; [24]) was 940 ± 28 nM, the EC50 (HIV-1IIIB; [25]) was 1300 nM and the EC50 (HIV-1IIIB; [26]) was 970 nM. The “EC50 fold higher than those for DXG” value (HIV-1IIIB; various cells) was 5-20 fold, the EC50 [17] was 850 ± 71 nM and the CC50 at 72 h [18] was > 500 µM.

Compound Nc1nc2c(ncn2[C@H]2CO[C@@H](CO)O2)c(=O)[nH]1 [DXG, (−)-β-D-1,3-dioxolane guanine] has an EC50 [1] of 120 ± 80 nM, an EC50 (recombinant HXB2-D 65R) of 1.2 ± 0.2 µM and an EC50 (recombinant HXB2-D WT) of 210 ± 50 nM. For the same compound, the EC50 (recombinant HXB2-D 74V) was 1.3 ± 0.8 µM, the EC50 [19] was 50 ± 7 nM and the “sensitivity of AZT resistant virus, in words” value [2] was “remained completely sensitive”. It also gave an EC50 [2] of 240 ± 20 nM, an EC50 [3] of 120 ± 30 nM and a decreased sensitivity ([4]; 41L and 215Y combined with 184V) of ~2 fold. For the same compound, the EC50 [4] was 410 ± 100 nM, the EC50 (recombinant HXB2-D 184V) was 440 ± 70 nM and the CC50 at 72 h [5] was > 500 µM. For the same compound, the CC50 at 72 h [6] was ≥ 500 µM, the CC50 at 72 h [7] was > 500 µM and the “no toxicity up to (highest concentration tested)” value [20] was ≥ 100 µM. The EC50 [8] was 650 ± 330 nM, the “decreased susceptibility” value [8] was ~5 fold and the EC50 [9] was 20 nM. The EC50 [10] was 180 ± 7 nM, the EC50 [11] was 170 ± 60 nM and the “sensitivity of isolate 4242, in words” value [12] was “remained sensitive”. It also gave an EC50 [12] of 210 ± 7 nM, an EC50 [13] of 45 nM and an EC50 [14] of 1100 ± 1190 nM. For the same compound, the “decreased susceptibility” value [14] was ~5 fold, the CC50 at 72 h [15] was > 500 µM and the CC50 at 72 h [16] was > 500 µM. The EC50 (HIV-1IIIB; [21]) was 60 ± 50 nM, the EC50 (HIV-1IIIB; [22]) was 340 ± 140 nM and the EC50 (HIV-1IIIB; [23]) was 85 nM. For the same compound, the EC50 (HIV-1IIIB; [24]) was 51 ± 9 nM, the EC50 (HIV-1IIIB; [25]) was 410 nM and the EC50 (HIV-1IIIB; [26]) was 46 nM. For the same compound, the “anti-HIV-1 efficacy fold less than that of AZT” value (HIV-1IIIB; various cells) was 5-10 fold, the EC50 [17] was 55 ± 27 nM and the CC50 at 72 h [18] was > 500 µM.
